Measurements taken from PMC12207360, “Hyperpolarization Modulation of the T‐Type hCav3.2 Channel by Human Synenkephalin [1–53], a Shrew Neurotoxin Analogue without Paralytic Effects” (Angewandte Chemie (International Ed. in English), 2025).
Where no end group is shown, it is not given here.

Assays:
[1] = system: glutamyl endopeptidase (Glu-C); assay: Glutamyl endopeptidase (Glu-C) digestion; settings: intact peptide, without disulfide reduction
Method: (§1) To determine the connectivity of disulfide bonds in synthetic 2, enzymatic digestion and subsequent fragment peptide analysis were performed. […] However, due to high proteolytic stability, analysis of these degraded products provided little information on the disulfide bond connectivity in 2. To perform stepwise S‐alkylation with limiting reduction of disulfide bonds,^[ [52], [53] ^] 2 was denatured with 6 M aq. guanidine hydrochloride (GdmCl)/0.1 M aq. citrate, followed by tris(2‐carboxyethyl)phosphine (TCEP) reduction and Michael addition to N‐ethylmaleimide (NEM). As a result, we obtained six kinds of S‐alkylated products (2SS‐a/b/c and 1SS‐a/b/c) with one or two disulfide bonds cleaved, respectively, along with unreacted 2 (3SS) and a fully S‐alkylated product (0SS) (Scheme 1a and Figure S4a). HPLC‐purified 1SS‐a (3) and 1SS‐b (4), which have different patterns of four Cys(S‐Nem) residues, were then reduced with DTT and alkylated with iodoacetamide.

trypsin = assay: Trypsin digestion; settings: intact peptide, without disulfide reduction
Method: as §1

[2] = system: human T-type voltage-gated calcium channel (hCav3.2); assay: Whole-cell patch-clamp of voltage-gated Ca2+ currents in HEK293T cells expressing hCav3.2; assay type: cell-based; settings: 0.74 µM, n = 5
Method: Normalized conductance (G/G max) was generated for both data sets, fit to a Boltzmann equation, and is shown as data ± S.E.M. (n = 5). Statistical analyses were performed using Dunnett's multiple comparison tests. ^* p < 0.05 versus control. […]
Electrophysiological assays were done on human Cav3.2 channel, which was expressed on human embryonic kidney 293T (HEK293T) cells using Lipophectamine® 3000 transfection reagent. A pcDNA3 plasmid construct containing the complete sequence coding the human α1H-subunit of the Cav3.2 channel flanked by a green fluorescent protein was kindly provided by Prof. Edward Perez–Reyes (University of Virginia, Charlottesville, Virginia, USA).S1 Vo l t a g e-gated Ca2+ currents were recorded by the whole-cell patch-clamp technique, as previously described.28,S2 This recording was performed in the whole-cell conﬁguration using an Axopatch 200B Ampliﬁer (Axon CNS, Molecular Devices) at a holding potential of –90 mV. Cells were depolarized from the –90 mV holding potential to +80 mV with +10 mV voltage steps of 200 ms. The current amplitude was measured at the peak. The current density was determined with the cell capacitance to establish the density-voltage curves.
The currents were ﬁltered at 2 kHz and sampled at 5 kHz using an A/D converter, the Digidata 1440A (Axon CNS, Molecular Devices). The leak was subtracted automatically by a P/4 protocol (pclamp10, Axon CNS, Molecular Devices). For the recording Ca2+ currents, the bath solution contained 125 mM N-methyl-D-glucamine, 5 mM 4-aminopyridine, 20 mM tetraethylammonium chloride, 2 mM CaCl2, 2 mM MgCl2, and 10 mM D-glucose and was buffered to pH 7.4 with 10 mM HEPES. The patch pipettes were ﬁlled with solution containing 130 mM CsCl, 10 mM EGTA, 3 mM Mg–AT P, a n d 0 . 4 m M Li–GTP with the pH adjusted to 7.2 by 25 mM HEPES. Statistical analyses were performed using Dunnett’s multiple comparison tests. *, p < 0.05 versus control.
Circular dichroism spectrometry and stereostructure prediction of hSYN. […]
In brief, synthetic hSYN [1–53] (2) was dissolved in 50 mM KHPO4, pH 7.0 (ﬁnal concentration: 20 μM) in a 1 mm pathlength cell. The spectrum consisted of ﬁve scans acquired with a scan rate of 20 nm/min and a digital integration time of 2 sec. […]
Schrödinger, LLC) was used for calculation of surface charge and final image processing which suitable for scientific

several enzymes = assay: Susceptibility to several enzymes / degradation; settings: intact hSYN; compared with paralytic effect of BPP2 on mealworms
Method: as §1

With “human synenkephalin [1–53] (ECSQDCATCSYRLVRPADINFLACVMECEGKLPSLKIWETCKELLQLSKPELP; disulfide (positions not given here); also: Type II disulfides, places not given here; UniProt P01210 25-77, looked up, fragment) [compound 2, human synenkephalin N-terminal part [1–53], three disulfide bonds Cys(I)–Cys(V), Cys(II)–Cys(IV), Cys(III)–Cys(VI)]” the “proteolytic stability toward Glu-C” value [1] was “partially digested”, the “proteolytic stability toward trypsin” value (trypsin) was “partially digested” and the “lowest current density peak” value ([2]; at −30 mV (control ca. −59 pA/pF at −10 mV)) was “ca. −42 pA/pF”. For the same substance, the “voltage of lowest current density peak” value ([2]; control peak at −10 mV) was −30 mV, the “current density at 0 to +20 mV” value ([2]; suggesting a block at higher membrane depolarization) was “significantly reduced” and the “hyperpolarization shift of hCav3.2 activation” value ([2]; whole-cell patch clamp, HEK293T cells, holding potential –90 mV, pH 7.4, Boltzmann fit, ± S.E.M., p < 0.05 versus control) was −15 mV. The enzymatic degradation (several enzymes) was “susceptible to several enzymes, its degradation was much slower than the paralytic effect of BPP2 on mealworms”.
